The source of these data is US8435744B2 (priority 2005, dated 2013).

The experiment deals with PrP^C from uninfected N2a58 cells (Mus musculus, UniProt P04925). In kind it is cell-based, murine. To be noted: normal N2a58 cells, 3 days, 5 to 20 μM, before and after PK, FIG. 5.
PrP^C from uninfected N2a58 cells, sequence (P04925 23-230 limits assumed): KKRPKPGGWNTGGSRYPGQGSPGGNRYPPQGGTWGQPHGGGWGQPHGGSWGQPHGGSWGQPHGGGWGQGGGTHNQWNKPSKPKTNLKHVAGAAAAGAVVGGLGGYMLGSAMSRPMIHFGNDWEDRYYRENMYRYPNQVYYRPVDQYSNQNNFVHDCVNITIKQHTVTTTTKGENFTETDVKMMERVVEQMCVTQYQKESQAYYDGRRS

With `CSc1nccc(-c2ccc(Br)s2)n1` [compound A, 4-(5-bromo-2-thienyl)-2-(methylthio)pyrimidine], the “oligomeric forms of normal PrP or bands resistant to proteinase K digestion” value is recorded as “does not make it possible to demonstrate oligomeric forms of the normal prion protein, PrP nor the appearance of bands resistant to proteinase K digestion”.
